The text below walks through data of the supplement of paper PMC10307832.

What all share (assay): relative viability (nuclei count vs DMSO), 5 days (fraction); higher = more cells survive
Compound in experiment [1]: CC1=C(N=C(N=C1N)[C@H](CC(=O)N)NC[C@@H](C(=O)N)N)C(=O)N[C@@H]([C@H](C2=CN=CN2)OC3C(C(C(C(O3)CO)O)O)OC4C(C(C(C(O4)CO)O)OC(=O)N)O)C(=O)N[C@H](C)[C@H]([C@H](C)C(=O)N[C@@H]([C@@H](C)O)C(=O)NCCC5=NC(=CS5)C6=NC(=CS6)C(=O)NCCC[S+](C)C)O [Bleomycin]
The conditions noted are these: main component drawn. An outline of the steps: (§1)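 In 1536-well plates, lung cancer cell lines rested overnight at 37 °C before five library-drug doses (not always all listed), √10 apart, were pinned onto vehicle-anchored plates. Nuclei were counted with MetaXpress from 4× Hoechst images taken after 5 days without medium change. Viability compares treated-well with vehicle-well nuclei as a median over plates, and plates needed control CV below 25% plus at least one doubling to pass.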

Compound in experiment [2]: COc1cc([C@@H]2c3cc4c(cc3[C@@H](O[C@@H]3O[C@@H]5CO[C@@H](C)O[C@H]5[C@H](O)[C@H]3O)[C@H]3COC(=O)[C@H]23)OCO4)cc(OC)c1O [Etoposide]
An outline of the steps:
as §1

Compound in experiment [3]: COc1cc([C@@H]2c3cc4c(cc3[C@@H](O[C@@H]3O[C@@H]5CO[C@@H](C)O[C@H]5[C@H](O)[C@H]3O)[C@H]3COC(=O)[C@H]23)OCO4)cc(OC)c1O [Etoposide] + CC1(C)CCC(c2ccc(Cl)cc2)=C(CN2CCN(c3ccc(C(=O)NS(=O)(=O)c4ccc(N[C@H](CCN5CCOCC5)CSc5ccccc5)c(S(=O)(=O)C(F)(F)F)c4)cc3)CC2)C1 [Navitoclax] (partner 0.5 µM)
An outline of the steps: (§2)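 Values are medians from duplicate plates. Each reflects relative viability, defined as the nuclei count of treated wells over that of vehicle wells. Lung cancer cell lines in 1536-well plates were pin-tool dosed one day after seeding with one drug alone or with a fixed anchor-drug dose plus five library-drug doses (not always all listed) in √10 steps, then fixed, stained and imaged at 4× after 5 days.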

Compound in experiment [4]: CC1=C(N=C(N=C1N)[C@H](CC(=O)N)NC[C@@H](C(=O)N)N)C(=O)N[C@@H]([C@H](C2=CN=CN2)OC3C(C(C(C(O3)CO)O)O)OC4C(C(C(C(O4)CO)O)OC(=O)N)O)C(=O)N[C@H](C)[C@H]([C@H](C)C(=O)N[C@@H]([C@@H](C)O)C(=O)NCCC5=NC(=CS5)C6=NC(=CS6)C(=O)NCCC[S+](C)C)O [Bleomycin] + CC(=O)Nc1cccc(-n2c(=O)n(C3CC3)c(=O)c3c(Nc4ccc(I)cc4F)n(C)c(=O)c(C)c32)c1 [Trametinib] (partner 0.02 µM)
The conditions noted are these: main component drawn. The gist of the method:
as §2

For the cell line NCI-H441, the relative viability in experiment [1] (0.01 µM) was determined as 0.626; in experiment [1] (0.03162 µM) it was 0.922; in experiment [1] (0.1 µM), 0.862; in experiment [1] (0.3162 µM), 0.651; in experiment [1] (1 µM), 0.42; in experiment [2] (0.01 µM), 0.923. For the same cell line, the relative viability in experiment [2] (0.03162 µM) amounted to 1.03; in experiment [2] (0.1 µM) it was 0.751; in experiment [2] (0.3162 µM), 0.308; in experiment [2] (1 µM) it was 0.172; in experiment [3] (first compound 0.01 µM) it was 0.535; in experiment [3] (first compound 0.03162 µM), 0.633. In addition, the relative viability in experiment [3] (first compound 0.1 µM) turned out to be 0.571; in experiment [3] (first compound 0.3162 µM), 0.168; in experiment [3] (first compound 1 µM), 0.189; in experiment [4] (first compound 0.01 µM), 0.398; in experiment [4] (first compound 0.03162 µM) it was 0.408; in experiment [4] (first compound 0.1 µM), 0.431. Moreover, the relative viability amounted to 0.298 in experiment [4] (first compound 0.3162 µM) and 0.357 in experiment [4] (first compound 1 µM).

For NCI-H2170, the relative viability in experiment [1] (0.01 µM) was 0.939; in experiment [1] (0.03162 µM), 0.934; in experiment [1] (0.1 µM) it was 0.86; in experiment [1] (0.3162 µM), 0.703; in experiment [1] (1 µM) it was 0.66; in experiment [2] (0.01 µM), 0.938. Besides, the relative viability in experiment [2] (0.03162 µM) was 0.985; in experiment [2] (0.3162 µM), 0.986; in experiment [2] (1 µM), 0.834; in experiment [3] (first compound 0.01 µM) it was 0.625; in experiment [3] (first compound 0.03162 µM), 0.728; in experiment [3] (first compound 0.3162 µM) it was 0.525. The relative viability amounted to 0.399 in experiment [3] (first compound 1 µM); 0.89 in experiment [4] (first compound 0.01 µM); 0.89 in experiment [4] (first compound 0.03162 µM); 0.808 in experiment [4] (first compound 0.1 µM); 0.559 in experiment [4] (first compound 0.3162 µM); 0.468 in experiment [4] (first compound 1 µM).

With NCI-H1395, the relative viability in experiment [1] (0.01 µM) came to 0.753; in experiment [1] (0.03162 µM), 0.833; in experiment [1] (0.1 µM), 0.603; in experiment [1] (0.3162 µM) it was 0.476; in experiment [1] (1 µM) it was 0.398; in experiment [2] (0.01 µM), 0.872. In addition, the relative viability in experiment [2] (0.03162 µM) was determined as 0.961; in experiment [2] (0.1 µM), 0.804; in experiment [2] (0.3162 µM) it was 0.781; in experiment [2] (1 µM) it was 0.658; in experiment [3] (first compound 0.01 µM), 1.21; in experiment [3] (first compound 0.03162 µM), 1.15. In addition, the relative viability in experiment [3] (first compound 0.1 µM) came out at 0.893; in experiment [3] (first compound 0.3162 µM), 0.988; in experiment [3] (first compound 1 µM), 0.682; in experiment [4] (first compound 0.01 µM) it was 0.753; in experiment [4] (first compound 0.03162 µM), 0.822; in experiment [4] (first compound 0.1 µM) it was 0.714. The results for the relative viability in experiment [4] (first compound 0.3162 µM) and in experiment [4] (first compound 1 µM) were 0.482 and 0.404, respectively.

PC-14: the relative viability is 0.656 in experiment [1] (0.01 µM); 0.612 in experiment [1] (0.03162 µM); 0.286 in experiment [1] (0.1 µM); 0.097 in experiment [1] (0.3162 µM); 0.057 in experiment [1] (1 µM); 0.996 in experiment [2] (0.01 µM). Moreover, the relative viability in experiment [2] (0.03162 µM) came out at 1.08; in experiment [2] (0.1 µM) it was 0.933; in experiment [2] (0.3162 µM), 0.782; in experiment [2] (1 µM), 0.441; in experiment [3] (first compound 0.01 µM), 0.984; in experiment [3] (first compound 0.03162 µM) it was 1.05. Further, the relative viability in experiment [3] (first compound 0.1 µM) turned out to be 1.19; in experiment [3] (first compound 0.3162 µM), 0.906; in experiment [3] (first compound 1 µM), 0.652; in experiment [4] (first compound 0.01 µM) it was 0.243; in experiment [4] (first compound 0.03162 µM) it was 0.205; in experiment [4] (first compound 0.1 µM) it was 0.133. The figures for the relative viability in experiment [4] (first compound 0.3162 µM) and in experiment [4] (first compound 1 µM) were 0.0541 and 0.0419, respectively.

On to CAL-12T, for which the relative viability in experiment [1] (0.01 µM) was 0.755; in experiment [1] (0.03162 µM) it was 0.824; in experiment [1] (0.1 µM), 0.545; in experiment [1] (0.3162 µM), 0.273; in experiment [1] (1 µM), 0.202; in experiment [2] (0.01 µM), 0.946. The relative viability stood at 1.04 in experiment [2] (0.03162 µM); 0.797 in experiment [2] (0.1 µM); 0.726 in experiment [2] (0.3162 µM); 0.333 in experiment [2] (1 µM); 1.13 in experiment [3] (first compound 0.01 µM); 1.26 in experiment [3] (first compound 0.03162 µM). Also, the relative viability in experiment [3] (first compound 0.1 µM) was 1.17; in experiment [3] (first compound 0.3162 µM), 0.752; in experiment [3] (first compound 1 µM), 0.791; in experiment [4] (first compound 0.01 µM) it was 0.339; in experiment [4] (first compound 0.03162 µM), 0.326; in experiment [4] (first compound 0.1 µM), 0.294. In addition, the relative viability turned out to be 0.174 in experiment [4] (first compound 0.3162 µM) and 0.18 in experiment [4] (first compound 1 µM).
